Legend:
Format in all cases: physicochemical
[1] = Stability samples stored at elevated temperature/relative humidity, examined for crystal form; conditions: 80° C./50% RH, 60° C./75% RH, 60° C./50% RH and 40° C./75% RH, sealed conditions, 2 months
[2] = Thermodynamic stability among crystalline forms
[3] = Total volatile content by thermogravimetric analysis (TGA); conditions: TA Instruments Hi-Res TGA 2950 thermogravimetric analyzer (FIG. 7)
Protocol: Accordingly, in a second aspect of the present invention there is provided the compound of formula (I) form VI, having a total volatile content of not more than 0.3% by weight (w/w) as determined by a TA Instruments Hi-Res TGA 2950 thermogravimetric analyzer (FIG. 7).
Differential scanning calorimetry (DSC) was performed on a TA Instruments DSC 2920 Differential Scanning Calorimetor equipped with a DSC auto sampler. Samples of 1 to 3 mg were crimped in standard aluminum pans with holes and heated from 25° C. to 250° C. at a rate of 10° C./minute under nitrogen purge. The percentage of total weight loss of the drug substance was determined on a TA Instruments Hi-Res TGA 2950 thermogravimetric analyzer (TGA) with a nitrogen purge.

[4] = Gravimetric water vapor sorption (moisture sorption isotherm)
Protocol: Moisture adsorption/desorption studies were conducted on a VTI vacuum microbalance at 25° C. after drying the sample at 60° C. under vacuum. Moisture adsorption was monitored under vacuum from 0 to 95% relative humidity and desorption was monitored from 95% down to 5% relative humidity. The criteria for equilibrium at a given relative humidity was less than 3 μg of weight change in 18 minutes.

Row | thermodynamic stability relative to other forms [2] | total volatile content [3] | hygroscopicity [4] | water absorbed ([4]; equilibrated up to 95% relative humidity at ambient temperature (FIG. 8)) | Structure (SMILES) | solid form stability on storage (conversion of crystal form) [1]
1 |  |  |  |  | CC(C)Nc1nc2cc(Cl)c(Cl)cc2n1[C@H]1O[C@@H](CO)[C@H](O)[C@@H]1O [ethanolate, 5,6-dichloro-2-(isopropylamino)-1-(β-L-ribofuranosyl)-1H-benzimidazole] | partially or completely converted to Form VI
2 | most thermodynamically stable form | not more than 0.3 % by weight (w/w) | essentially non-hygroscopic | 0.3% | CC(C)Nc1nc2cc(Cl)c(Cl)cc2n1[C@H]1O[C@@H](CO)[C@H](O)[C@@H]1O [Form VI, 5,6-dichloro-2-(isopropylamino)-1-(β-L-ribofuranosyl)-1H-benzimidazole] | 
